Consider 37 compounds from a melting point compilation (Tetko et al.; mined from patent text by program, amines drawn as free bases though some values may be those of a salt).

Usually melting point stands for the temperature, or range, at which the solid turns liquid.

For `COc1ccc2c(c1)CCC1C2CCC2(C)C(NCc3ccccc3)CCC12` (configuration not stated), the melting point lay in the range of 102 to 104 °C.
As for `COC(=O)c1ccc2c(c1)C(SCCO)c1ccccc1CC2` (configuration not stated), the figure is 107 to 109 °C.
The result for `CNC(=O)c1ccc(N2CCNCC2)c(Cl)c1` reads 176 to 189 °C.
As for `COC(=O)C1=C(C)NC(C)=C(C(=O)NCCCN2CCN(c3ccccc3OC)CC2)C1c1cccc([N+](=O)[O-])c1` (configuration not stated), the figure is 70 to 80 °C.
`CC(=O)NC1=C(N)C(=O)c2cc(C)c(C)cc2C1=O` registered a melting point of 212 to 216 °C.
As for `CC(=O)Nc1ccc(C(=O)N2CC3CC(CN(Cc4ccccc4)C3)C2)cc1`, the figure is 208 °C; as for `COc1ccc(C(OC(C)=O)C(COC(C)=O)[N+](=O)[O-])cc1OC` (configuration not stated), 85 to 88 °C; as for `CCN(CC)c1nc(-c2ccc(OC)cc2)nc2sc(C#N)c(C)c12`, 154 to 156 °C.
`CCCc1c(OCCCSc2ccc(C(=O)CCC(=O)O)c(F)c2)ccc(C(C)=O)c1O` showed a melting point of 149 to 150 °C.
`O=S(=O)(Nc1cccnc1Nc1ccccc1)c1ccc(Oc2ccccc2)cc1` registered a melting point of 164 to 166 °C.
The result for `NS(=O)(=O)Oc1ccc2cc(C3CCCCC3)sc2c1` reads 128 °C; that for `Cn1cnc([N+](=O)[O-])c1Oc1ccccc1`, 116 to 118 °C; that for `O=c1c(Cl)c(OCc2ccc(Cl)cc2Cl)cnn1-c1ccc(Cl)cc1`, 168 to 169 °C.
The result for `CC(=O)OC1CC(n2cc(C=CBr)c(=O)[nH]c2=O)OC1C(O)F` (configuration not stated) reads 81 °C; that for `COc1ccc(Oc2c(Cl)cc(-n3ncc(=O)[nH]c3=O)cc2Cl)cc1NS(=O)(=O)c1ccc(F)cc1`, 90 to 96 °C.
As for `Cc1cn(C(C)C(=O)N2CCOCC2)nc1-c1ccccc1` (configuration not stated), the figure is 84 to 96 °C; as for `Cn1cc(C=CC(=O)NCCO)c([N+](=O)[O-])n1`, 176 to 178 °C; as for `CCOC(=O)C1=CC2(CCC1S(=O)(=O)Nc1ccc(F)cc1Cl)SCCS2` (configuration not stated), 160 to 161 °C.
With `Cn1c(=N)c(C(=O)NCCO)c(O)c2cc(Cl)ccc21`, the melting point lay in the range of 234 to 237 °C.
The result for `Cc1ccc(C(N)=S)nc1` reads 172 to 173 °C; that for `CNC(=O)Nc1ccc(F)cc1Cl`, 174 to 178 °C; that for `COc1cccc(-c2ccc3cc(OC)ccc3c2Oc2ccc(C=O)cc2)c1`, 145 to 146 °C.
As for `CC1C(=O)Oc2cc(N3CCCCC3)c(Cl)cc21` (configuration not stated), the figure is 108 to 111 °C; as for `O=C(Nc1ccc(N2CCN(Cc3ccccc3)CC2)c(Cl)c1)c1ccccn1`, 92 to 94 °C; as for `O=C(Nc1ccc2cc(CN3CCCCC3)ccc2c1)N1CCC(c2ccc(F)cc2)CC1`, 209 to 211 °C.
As for `OC(c1ccc(F)cc1)(c1ccc(F)cc1)C1SCSCS1`, the figure is 124 to 125 °C.
In the case of `Cc1nc2ccnn2c(=O)[nH]1`, the melting point worked out at 268 °C.
The result for `O=C(O)CCCCCC(c1cc(F)ccc1F)S(=O)(=O)c1ccc(Cl)cc1` (configuration not stated) reads 72 to 76 °C; that for `CCOC(=O)c1c(NC(=O)NC(C)C)sc(C)c1C`, 135 °C.
Regarding `Nc1cc(=O)[nH]c2c1cnn2-c1ccccc1`, the melting point lay in the range of 223 to 225 °C.
The result for `CCCN(CCC)C(=O)Cc1ccc(O)c([N+](=O)[O-])c1` reads 55 to 57 °C; that for `COC(=O)C(C)c1cc(=O)n(Cc2ccccc2)c2ccccc12` (configuration not stated), 90 to 92.5 °C.
`O=C(O)C1(CS(=O)(=O)c2ccc(Oc3ccccc3)cc2)CCOCC1`: the melting point was 162 to 165 °C.
`Cc1csc2nccn12` registered a melting point of 165 to 168 °C.
As for `Nc1ccccc1-n1sc(-c2ccccc2)cc1=O`, the figure is 145 to 146 °C; as for `CC(C)c1[nH]c(Cl)c(C#N)c1SC#N`, 159 °C.
As for `BrCCC1c2ccccc2-c2ccccc21`, the figure is 48 to 49 °C.
